BindingDB's records for doi:10.1016/s0960-894x(98)00237-6 (Fujisawa Pharmaceutical, 1999)

Key:
[1] = Compound was evaluated for the inhibition of […] I-CCK-8 binding at Cholecystokinin type B receptor on guinea pig cerebral cortical membranes
[2] = Compound was evaluated for the inhibition of […] I-CCK-8 binding at CCK-B receptor Cholecystokinin type B receptor cerebral cortical membranes

Structure (SMILES)	IC50 [1] [nM]	IC50 [2] [nM]
CCc1cccc2c1N(CC(=O)N1CC3CCC(CC3)C1)C(=O)C(NC(=O)Nc1cccc(-c3nnn[nH]3)c1)N=C2c1ccccc1F (stereo not drawn) [1-[1-[2-(3-Aza-bicyclo[3.2.2]non-3-yl)-2-oxo-ethyl]-9-ethyl-5-(2-fluoro-phenyl)-2-oxo-2,3-dihydro-1H-benzo[e][1,4]diazepin-3-yl]-3-[3-(1H-tetrazol-5-yl)-phenyl]-urea]	0.81	–
O=C(Nc1cccc(-c2nnn[nH]2)c1)NC1N=C(c2ccccc2F)c2cccc(Cl)c2N(CC(=O)N2CC3CCC(CC3)C2)C1=O (stereo not drawn) [1-[1-[2-(3-Aza-bicyclo[3.2.2]non-3-yl)-2-oxo-ethyl]-9-chloro-5-(2-fluoro-phenyl)-2-oxo-2,3-dihydro-1H-benzo[e][1,4]diazepin-3-yl]-3-[3-(1H-tetrazol-5-yl)-phenyl]-urea]	–	0.66
O=C(Nc1cccc(-c2nnn[nH]2)c1)NC1N=C(c2ccccc2F)c2ccccc2N(CC(=O)N2CC3CCC(CC3)C2)C1=O (stereo not drawn) [1-[1-[2-(3-Aza-bicyclo[3.2.2]non-3-yl)-2-oxo-ethyl]-5-(2-fluoro-phenyl)-2-oxo-2,3-dihydro-1H-benzo[e][1,4]diazepin-3-yl]-3-[3-(1H-tetrazol-5-yl)-phenyl]-urea]	0.087	–
